Test results from US5756491A, “Antiviral cobalt-organic compounds” (priority 1991, dated 1998).

Tests used:
HFF cells = assay: Cell proliferation assay; assay type: cell-based, human; settings: rapidly growing cells
RE strain HSV-1 = assay: HSV-1 recovery from tear film, cornea and trigeminal ganglia of treated rabbits; assay type: in vivo, NZW rabbit
Text: The specified number of NZW rabbits (1.5-2.0 kg) were used. Animals were received at least two days prior to inoculation to allow them to accommodate to the conditions in the vivarium facility. This conditioning of the animals prior to inoculation minimizes animal variability. After the accommodation, the animals received a slit-lamp examination to exclude any animals with pre-existing anterior segment ocular defects. Animals were bi-laterally inoculated by intrastromal injection of 10^5 PFU RE strain HSV-1. The animals were then replaced individually into cages.
[…] This was carried out by obtaining tear film by swabbing the lower and upper conjunctival sacs and retaining the swab in the nasal fornix for 10 seconds. The swabs were eluted individually in HBSS. 50 μl aliquots of the virus-HBSS eluate were absorbed under confluent HFF cell monolayers for 5 minutes. The monolayers were hydrated with MEM, incubated at 37° C. and observed daily for 1 to 2 weeks to detect developing cytopathology consistent with HSV infection (HSV CPE).
(§1) On day 10 PI, the animals were sacrificed, the corneal epithelium was scraped from the eyes and epithelial and corneal stromal cultures were preformed on HFF cell monolayers. The separation of epithelial virus from deeper stromal virus infection allows for analysis of HSV in these distinct corneal layers. Corneal epithelial and stromal co-cultures were evaluated daily by inverted light microscopy.
At sacrifice, trigeminal ganglia were removed, washed in HBSS, minced and floated over duplicate HFF cell monolayers. The cell co-cultures were monitored by inverted light microscopy for 2 weeks. Negative cultures were blind passaged twice at 7 day intervals. Detection of HSV CPE in the whole-cell co-cultures was scored either positive or negative. HSV recovery from inventive compound-treated, TFT-treated and placebo-treated trigeminal ganglia was compared and differences in recovery rates analyzed.
as §1, with “7” for “10”, “performed” for “preformed”

HSV-1 McKrae Strain [1] = assay: Direct virucidal efficacy against HSV-1 on HFF monolayers; assay type: cell-based
[2] = tested on: human foreskin fibroblast (HFF) cell monolayers; assay: Toxicity effects controls: sham-inoculated compound-treated HFF monolayers; assay type: cell-based; note: key: +: toxic; -: no toxicity; ±: mild toxicity; T: toxicity effects interfered with CPE rating
Text: (§2) With sufficient stirring, all the compounds completely dissolved.
In the tables, the symbols have the meaning indicated: […]

HSV-1 McKrae Strain [3] = assay: Intracellular antiviral activity against HSV-1 in HFF monolayers; assay type: cell-based; settings: Experiment 7 (Table 18), 24 h PI
Description: HSV-1 McKrae Strain was diluted to a final concentration of 10^5 PFU/ml in minimal essential medium (MEM). Hereinafter, this dilution is referred to as the HSV-1 Suspension for convenience.
as §2
HFF cell monolayers were inoculated with the HSV-Suspension prepared as above by absorption for thirty minutes at 37° C. After absorption of the virus, the inoculum was aspirated from the cell monolayers and the HSV-1 infected monolayers were rehydrated with medium containing the appropriate concentration of the solution of the compound by adding 500 microliters of each compound concentration to triplicate HSV-1 infected monolayers. All monolayers were incubated at 37° C. The developing HSV-1 cytopathology was monitored daily for two days by inverted light microscopy and titers were calculated by multiple […] analysis. For the intracellular anti-viral activity, "cell monolayer controls" were obtained using sham inoculated non-treated HFF cell monolayers along with the drug treated monolayers. "Positive controls" were obtained by using HSV-1 inoculated non-CTC compound treated HFF monolayers.

Compound: CC1=CC(C)=[N+]2CC[N+]3=C(C)C=C(C)[O][Co-3]23([NH3+])([NH3+])[O]1.[Cl-] [Compound 23, reference compound]
- toxicity IC50, cell proliferation (HFF cells): 6.2 MCG/ML
- HSV-1 recovery from corneal epithelial cultures vs other therapy groups (RE strain HSV-1; Example 3): significantly reduced
- HSV-1 recovery, corneal epithelium (C.E.) (RE strain HSV-1; Example 3 (Table 22)): 20%
- HSV-1 recovery, corneal stroma (C.S.) (RE strain HSV-1; Example 3 (Table 22)): 50%
- HSV-1 recovery, trigeminal ganglia (T.G.) (RE strain HSV-1; Example 3 (Table 22)): 50%
- HSV-1 recovery, tear film (positive samples of total) (RE strain HSV-1; Example 3 (Table 22), day 3 PI): 100%
- HSV-1 recovery, tear film (positive samples of total) (RE strain HSV-1; Example 3 (Table 22), day 5 PI): 100%
- HSV-1 recovery, tear film (positive samples of total) (RE strain HSV-1; Example 3 (Table 22), day 7 PI): 80%
- HSV-1 recovery, tear film (positive samples of total) (RE strain HSV-1; Example 3 (Table 22), day 9 PI): 0%
- recovery of HSV-1 in tear film (RE strain HSV-1; Example 4): reduced the recovery of HSV-1 in tear film
- HSV-1 recovery, corneal stroma (RE strain HSV-1; Example 5 (Table 23)): 80%
- HSV-1 recovery (positive cultures per total) (RE strain HSV-1; Example 5 (Table 23), column 1): 0%
- HSV-1 recovery (positive cultures per total) (RE strain HSV-1; Example 5 (Table 23), column 3): 100%
- HSV-1 recovery (positive cultures per total) (RE strain HSV-1; Example 5 (Table 23), column 5): 90%
- HSV-1 recovery (positive cultures per total) (RE strain HSV-1; Example 5 (Table 23), column 7): 80%
- virucidal efficacy (HSV-1 titer) (HSV-1 McKrae Strain [1]; Experiment 1 (Table 2), 24 h PI, 0.001 mg/ml): 10^5 PFU/ml
- virucidal efficacy (HSV-1 titer) (HSV-1 McKrae Strain [1]; Experiment 1 (Table 2), 24 h PI, 0.1 mg/ml): 10^1 PFU/ml
- virucidal efficacy (HSV-1 titer) (HSV-1 McKrae Strain [1]; Experiment 1 (Table 2), 24 h PI, 1 mg/ml): 0 PFU/ml
- virucidal efficacy (HSV-1 titer) (HSV-1 McKrae Strain [1]; Experiment 1 (Table 2), 24 h PI, 10 mg/ml): 0 PFU/ml
- virucidal efficacy (HSV-1 titer) (HSV-1 McKrae Strain [1]; Experiment 1 (Table 2), 24 h PI, .01 mg/ml): 10^3 PFU/ml
- virucidal efficacy (HSV-1 titer) (HSV-1 McKrae Strain [1]; Experiment 1 (Table 2), 48 h PI, 0.1 mg/ml): 10^5 PFU/ml
- virucidal efficacy (HSV-1 titer) (HSV-1 McKrae Strain [1]; Experiment 1 (Table 2), 48 h PI, 1 mg/ml): 10^5 PFU/ml
- virucidal efficacy (HSV-1 titer) (HSV-1 McKrae Strain [1]; Experiment 1 (Table 2), 48 h PI, 10 mg/ml): O/T
- effective virucidal concentration IC90 (HSV-1 McKrae Strain [1]; Experiment 1 (Table 3), HSV-1): 0.1 mg/mL
- virucidal efficacy (HSV-1 titer) (HSV-1 McKrae Strain [1]; Experiment 2 (Table 5), 24 h PI, 0.001 mg/ml): 10^3 PFU/ml
- virucidal efficacy (HSV-1 titer) (HSV-1 McKrae Strain [1]; Experiment 2 (Table 5), 24 h PI, 0.01 mg/ml): 10^2 PFU/ml
- virucidal efficacy (HSV-1 titer) (HSV-1 McKrae Strain [1]; Experiment 2 (Table 5), 24 h PI, 0.1 mg/ml): 10^1 PFU/ml
- virucidal efficacy (HSV-1 titer) (HSV-1 McKrae Strain [1]; Experiment 2 (Table 5), 24 h PI, 1 mg/ml): 0 PFU/ml
- virucidal efficacy (HSV-1 titer) (HSV-1 McKrae Strain [1]; Experiment 2 (Table 5), 24 h PI, 10 mg/ml): 0 PFU/ml
- virucidal efficacy (HSV-1 titer) (HSV-1 McKrae Strain [1]; Experiment 2 (Table 5), 48 h PI, 0.1 mg/ml): 10^5 PFU/ml
- virucidal efficacy (HSV-1 titer) (HSV-1 McKrae Strain [1]; Experiment 2 (Table 5), 48 h PI, 1 mg/ml): 0 PFU/ml
- virucidal efficacy (HSV-1 titer) (HSV-1 McKrae Strain [1]; Experiment 2 (Table 5), 48 h PI, 10 mg/ml): O/T
- virucidal efficacy (HSV-1 titer) (HSV-1 McKrae Strain [1]; Experiment 3 (Table 8), 24 h PI, 0.001 mg/ml): 10^5 PFU/ml
- virucidal efficacy (HSV-1 titer) (HSV-1 McKrae Strain [1]; Experiment 3 (Table 8), 24 h PI, 0.01 mg/ml): 10^3 PFU/ml
- virucidal efficacy (HSV-1 titer) (HSV-1 McKrae Strain [1]; Experiment 3 (Table 8), 24 h PI, 0.1 mg/ml): 10^1 PFU/ml
- virucidal efficacy (HSV-1 titer) (HSV-1 McKrae Strain [1]; Experiment 3 (Table 8), 24 h PI, 1 mg/ml): 0 PFU/ml
- virucidal efficacy (HSV-1 titer) (HSV-1 McKrae Strain [1]; Experiment 3 (Table 8), 48 h PI, 0.1 mg/ml): 10^5 PFU/ml
- virucidal efficacy (HSV-1 titer) (HSV-1 McKrae Strain [1]; Experiment 3 (Table 8), 48 h PI, 1 mg/ml): 10^5 PFU/ml
- virucidal efficacy (HSV-1 titer) (HSV-1 McKrae Strain [1]; Experiment 6 (Table 16), 24 h PI, 0.1 mg/ml): 10^0-1 PFU/ml
- virucidal efficacy (HSV-1 titer) (HSV-1 McKrae Strain [1]; Experiment 6 (Table 16), 24 h PI, 0.5 mg/ml): 0 PFU/ml
- virucidal efficacy (HSV-1 titer) (HSV-1 McKrae Strain [1]; Experiment 6 (Table 16), 24 h PI, 1 mg/ml): 0 PFU/ml
- virucidal efficacy (HSV-1 titer) (HSV-1 McKrae Strain [1]; Experiment 6 (Table 16), 24 h PI, 2 mg/ml): 0 PFU/ml
- virucidal efficacy (HSV-1 titer) (HSV-1 McKrae Strain [1]; Experiment 6 (Table 16), 24 h PI, 5 mg/ml): 0 PFU/ml
- toxicity effects ([2]; Experiment 1 (Table 1), 24 h PI, 0.001 mg/ml): -
- toxicity effects ([2]; Experiment 1 (Table 1), 24 h PI, 0.01 mg/ml): -
- toxicity effects ([2]; Experiment 1 (Table 1), 24 h PI, 0.1 mg/ml): -
- toxicity effects ([2]; Experiment 1 (Table 1), 24 h PI, 1 mg/ml): -
- toxicity effects ([2]; Experiment 1 (Table 1), 48 h PI, 0.001 mg/ml): -
- toxicity effects ([2]; Experiment 1 (Table 1), 48 h PI, 0.01 mg/ml): -
- toxicity effects ([2]; Experiment 1 (Table 1), 48 h PI, 0.1 mg/ml): -
- toxicity effects ([2]; Experiment 1 (Table 1), 48 h PI, 10 mg/ml): +
- toxicity effects ([2]; Experiment 3 (Table 7), 24 h PI, 0.001 mg/ml): -
- toxicity effects ([2]; Experiment 3 (Table 7), 24 h PI, 0.01 mg/ml): -
- toxicity effects ([2]; Experiment 3 (Table 7), 24 h PI, 0.1 mg/ml): -
- toxicity effects ([2]; Experiment 3 (Table 7), 48 h PI, 0.001 mg/ml): -
- toxicity effects ([2]; Experiment 3 (Table 7), 48 h PI, 0.01 mg/ml): -
- toxicity effects ([2]; Experiment 3 (Table 7), 48 h PI, 0.1 mg/ml): -
- toxicity effects ([2]; Experiment 6 (Table 15), 48 h, 0.001 mg/ml): -
- toxicity effects ([2]; Experiment 6 (Table 15), 48 h, 0.01 mg/ml): -
- toxicity effects ([2]; Experiment 6 (Table 15), 48 h, 0.1 mg/ml): -
- toxicity effects ([2]; Experiment 6 (Table 15), 48 h, 0.5 mg/ml): -
- toxicity effects ([2]; Experiment 6 (Table 15), 48 h, 1 mg/ml): -
- antiviral efficacy (HSV-1 titer) (HSV-1 McKrae Strain [3]; 0.01 mg/ml): 10^2 PFU/ml
- antiviral efficacy (HSV-1 titer) (HSV-1 McKrae Strain [3]; 0.5 mg/ml): 0-10^1 PFU/ml
- antiviral efficacy (HSV-1 titer) (HSV-1 McKrae Strain [3]; 1 mg/ml): 0 PFU/ml
- antiviral efficacy (HSV-1 titer) (HSV-1 McKrae Strain [3]; 2 mg/ml): 0 PFU/ml
- antiviral efficacy (HSV-1 titer) (HSV-1 McKrae Strain [3]; 5 mg/ml): 0 PFU/ml
